Drawing on US5006570A, “Dihydrobenzofuran- and chroman-carboxamide derivatives, processes for the preparation thereof and use thereof as neuroleptics” (Laboratoires Delagrange, priority 1986, dated 1991), this text covers LD50, ED50 and mortality for seven compounds.

Read-outs that look alike come from different tables or passages of the source.

The nature of data set [1]: Acute toxicity in mice (LD50, Bliss' method). The note with it: mouse, in vivo. As to the method: Acute toxicity was studied in mice, the compounds being administered intravenously, subcutaneously, intraperitoneally and orally.
The doses causing the death of 50% of the animals (LD50) were determined by Bliss' method, giving the following results: […]

The subject of data set [2] is spontaneous motor function in mice. Put plainly: Inhibition of spontaneous motor function in mice, Animex activity measurement test. It counts as in vivo. Particulars: Mus musculus. From the text:
(§1) Thus, an inhibitory effect on spontaneous motor function in mice, a catalepsy-inducing power in rats, and antagonism towards certain apomorphine- and amphetamine-induced behavioural effects were investigated, in particular.
(§2) Regarding the spontaneous motor function in mice, an inhibitory effect of the inventive compounds was effectively observed and recorded by a photoelectric method, according to a technique similar to that of Winter and Flataker (J. Pharmacol. Exp. Ther. 1951, 101, 156-162) and by measurement of activity using an Animex apparatus.
(§3) The compounds were administered intraperitoneally or orally, respectively, 15 or 60 minutes before the recording according to the method adopted.
(§4) The values of the 50% inhibitory doses of motor function ID50 of the compounds are collected in the following table: […]

In data set [3] the test system is Apomorphine stereotypy. The experiment in a line: Antagonism of apomorphine stereotypy in rats (0.5 mg/kg SC, derived from Puech). In kind it is in vivo. Particulars: Rattus norvegicus, ip, compound i.p. 30 minutes before apomorphine 0.5 mg/kg SC, read-out: ID50 I.P., Apomorphine stereotypy (0.5 mg/kg SC). An excerpt:
(§5) Apomorphine and amphetamine induce stereotyped movements in rats which are antagonized by neuroleptics. […]
(§6) These different experimental conditions made it possible to establish the doses which antagonize stereotypy by 50% (ID50), judged on the basis of the various components of the movements which were observed.

The subject of data set [4] is apomorphine-induced climbing behavior. The experiment in a line: Antagonism of apomorphine-induced climbing behavior in mice. It counts as in vivo. Particulars: Mus musculus, ip, compound i.p. 30 minutes before apomorphine 1 mg/kg s.c., read-out: ID50 I.P., apomorphine-induced climbing behavior. On the procedure: Another test using apomorphine was applied, based on the observation of the climbing behavior which it induces in mice, this behavior being antagonized by neuroleptics, according to Puech (Eur. J. Pharmacol. 1978, 50, 291-300).
The compound was administered intraperitoneally 30 minutes before the apomorphine (1 mg/kg subcutaneously), and the antagonism was assessed 45 to 50 minutes after the administration of the compound.

Data set [5] concerns dexamphetamine stereotypy. Put plainly: Antagonism of dexamphetamine stereotypy in rats (Janssen amphetamine test). It counts as in vivo. Particulars: Rattus norvegicus, sc, 1 h, compound s.c. simultaneously with dexamphetamine 10 mg/kg i.v., effect at 60 minutes, read-out: ID50 S.C., Janssen amphetamine test. On the procedure: Apomorphine and amphetamine induce stereotyped movements in rats which are antagonized by neuroleptics. Different doses of apomorphine administered by different routes were applied to produce these movements. In the test using dexamphetamine, carried out according to the technique of Janssen (Arz. Forsch. 1961, 11, 932-938), 10 mg/kg of dexamphetamine were injected intravenously, the test product being injected simultaneously subcutaneously, and the effect being measured 60 minutes after these injections. These different experimental conditions made it possible to establish the doses which antagonize stereotypy by 50% (ID50), judged on the basis of the various components of the movements which were observed.

Data set [6] concerns spontaneous motor function in mice. The experiment in a line: Inhibition of spontaneous motor function in mice, Winter and Flataker test (photoelectric method). Particulars: Mus musculus. It counts as in vivo.
Excerpt: as §1, §2, §3, §4

Data set [7] concerns Apomorphine stereotypy. Put plainly: Antagonism of apomorphine stereotypy in rats (1.25 mg/kg IV, Janssen). In kind it is in vivo. The note with it: Rattus norvegicus, sc, compound s.c. 60 minutes before apomorphine 1.25 mg/kg IV, read-out: ID50 S.C., Apomorphine stereotypy (1.25 mg/kg IV).
Excerpt: as §5, §6

In another data set the test system is catalepsy in rats. Put plainly: Catalepsy in rats. It counts as in vivo. The note with it: Rattus norvegicus, sc, subcutaneously, at the peak of effect. As to the method: The catalepsy-inducing function of the compounds of the invention was studied in rats. Each of the compounds was administered subcutaneously, at increasing doses, to groups of 10 rats (1 group for each dose). […] The dose giving rise to catalepsy in 50% of the animals (ED50) was determined graphically, at the peak of effect.

Setting [8] is: ip, read-out: Lethal doses50 i.p.
The mark [9] stands for this setting: iv, read-out: Lethal doses50 i.v.
Where [10] appears, read: po, orally, read-out: Lethal doses50 orally.
[11] abbreviates: sc, read-out: Lethal doses50 s.c.
The mark [12] stands for this setting: ip, read-out: ID50 i.p., Animex activity measurement test.
[13] abbreviates: po, read-out: ID50 p.o., Animex activity measurement test.
Where [14] appears, read: ip, read-out: ID50 i.p., Winter and Flataker test.
The mark [15] stands for this setting: po, read-out: ID50 p.o., Winter and Flataker test.

Regarding `CCS(=O)(=O)c1cc2c(c(C(=O)NCC3CCCN3CC3=CCCCC3)c1)OCCC2` (centres unmarked) [Ex 11, N-(1-Cyclohexenylmethyl-2-pyrrolidinylmethyl)-6-ethylsulphonylchroman-8-carboxamide], the LD50 in data set [1] (setting [8]) lay within 125 to 127 mg/kg; in data set [1] (setting [9]), 28 to 28.6 mg/kg; in data set [1] (setting [10]), 149 to 163 mg/kg; in data set [1] (setting [11]), 141 to 145 mg/kg. Also, the ED50 in data set [2] (setting [12]) was 1.22 mg/kg; in data set [2] (setting [13]), 16.6 mg/kg; in the data set on Apomorphine stereotypy [3], 0.18 to 0.23 mg/kg; in data set [4], 0.105 to 0.126 mg/kg; in data set [5], 0.066 mg/kg; in data set [6] (setting [14]), 1.3 mg/kg. Moreover, the ED50 was 16.6 mg/kg in data set [6] (setting [15]), 0.134 mg/kg in the data set with Apomorphine stereotypy [7] and 1.66 mg/kg with catalepsy in rats.
Turning to `CNS(=O)(=O)c1cc2c(c(C(=O)NCC3CCCN3CC3=CCCCC3)c1)OC(C)C2` (centres unmarked) [Ex 1, N-(1-Cyclohexenylmethyl-2-pyrrolidinylmethyl)-5-methylsulphamoyl-2-methyl-2,3-dihydrobenzofuran-7-carboxamide], the LD50 in data set [1] (setting [8]) fell in the range of 134 to 152 mg/kg; in data set [1] (setting [9]) it was 30.5 to 35.2 mg/kg; in data set [1] (setting [10]) it was 259 to 295 mg/kg; in data set [1] (setting [11]), 316 to 318 mg/kg. The ED50 was 2.15 to 3.4 mg/kg in data set [2] (setting [12]); 19.2 to 22.4 mg/kg in data set [2] (setting [13]); 0.64 to 0.65 mg/kg in the data set on Apomorphine stereotypy [3]; 0.55 to 0.63 mg/kg in data set [4]; 0.285 mg/kg in data set [5]; 1.8 mg/kg in data set [6] (setting [14]). Further, the ED50 was 12.4 to 13.2 mg/kg in data set [6] (setting [15]), 0.375 mg/kg in the data set on Apomorphine stereotypy [7] and 6.6 mg/kg in the data set with catalepsy in rats.
For `O=C(NCC1CCCN1CC1=CCCCC1)c1cc(Cl)cc2c1OCCC2.O=C(O)/C=C/C(=O)O` (centres unmarked) [Ex 13, N-(1-Cyclohexenylmethyl-2-pyrrolidinylmethyl)-6-chlorochroman-8-carboxamide fumarate], the LD50 in data set [1] (setting [8]) was 120 mg/kg; in data set [1] (setting [10]), 422 to 473 mg/kg. Besides, the mortality in data set [1] (sc, at 900 mg/kg, read-out: deaths of animals at 900 mg/kg s.c.) turned out to be 0%. Further, the ED50 in data set [2] (setting [12]) is 3 mg/kg; in data set [2] (setting [13]), 22.7 mg/kg; with Apomorphine stereotypy [3], 0.38 to 0.44 mg/kg; in data set [4], 0.32 to 0.35 mg/kg; in data set [5], 0.15 mg/kg; in data set [6] (setting [14]), 1.96 mg/kg. Besides, the ED50 in data set [6] (setting [15]) was determined as 20.9 mg/kg; in the data set with Apomorphine stereotypy [7], 0.22 mg/kg; in the data set with catalepsy in rats it was 1.5 mg/kg.
`CCS(=O)(=O)c1cc2c(c(C(=O)NCC3CCCN3CC3CC3)c1)OC(C)C2.Cl` (centres unmarked) [Ex 9, N-(1-Cyclopropylmethyl-2-pyrrolidinylmethyl)-5-ethylsulphonyl-2-methyl-2,3-dihydrobenzofuran-7-carboxamide hydrochloride]: the LD50 in data set [1] (setting [8]) was in the range of 211 to 213 mg/kg; in data set [1] (setting [9]) it was 68.8 to 70.2 mg/kg; in data set [1] (setting [10]) it was 390 to 391 mg/kg; in data set [1] (setting [11]), 440 to 462 mg/kg. The ED50 in data set [2] (setting [12]) was 3 mg/kg; in data set [2] (setting [13]), 23.4 mg/kg; in the data set with Apomorphine stereotypy [3], 1.2 to 1.6 mg/kg; in data set [4] it was 0.4 to 0.55 mg/kg; in data set [5], 1.1 mg/kg; in data set [6] (setting [14]) it was 3.2 mg/kg. Moreover, the ED50 in data set [6] (setting [15]) turned out to be 31.5 mg/kg; in the data set on Apomorphine stereotypy [7] it was 3.6 mg/kg; with catalepsy in rats, 20.7 mg/kg.
For `CC1Cc2cc(Cl)cc(C(=O)NCC3CCCN3CC3=CCCCC3)c2O1` (centres unmarked) [Ex 15, Neutral ethanedisulphonate of N-(1-cyclohexenylmethyl-2-pyrrolidinylmethyl)-5-chloro-2-methyl-2,3-dihydrobenzofuran-7-carboxamide], the LD50 is 232 to 234 mg/kg in data set [1] (setting [8]), 31.1 to 34.7 mg/kg in data set [1] (setting [9]) and 1410 mg/kg in data set [1] (setting [11]). Further, the ED50 was 2.2 mg/kg in data set [2] (setting [12]); 23.2 mg/kg in data set [2] (setting [13]); 0.58 to 0.59 mg/kg in the data set with Apomorphine stereotypy [3]; 0.28 to 0.34 mg/kg in data set [4]; 0.18 mg/kg in data set [5]; 3.5 mg/kg in data set [6] (setting [14]). The ED50 in data set [6] (setting [15]) worked out at 43.4 mg/kg; with Apomorphine stereotypy [7] it was 0.41 mg/kg; in the data set with catalepsy in rats, 1.35 mg/kg.
On to `CNS(=O)(=O)c1cc2c(c(C(=O)NCC3CCCN3CC3=CCCCC3)c1)OCCC2` (centres unmarked) [Ex 2, N-(1-Cyclohexenylmethyl-2-pyrrolidinylmethyl)-6-methylsulphamoylchroman-8-carboxamide], for which the LD50 is 167 to 172 mg/kg in data set [1] (setting [8]), 42.6 to 43.7 mg/kg in data set [1] (setting [9]), 342 to 354 mg/kg in data set [1] (setting [10]) and 406 to 408 mg/kg in data set [1] (setting [11]). Besides, the ED50 in data set [2] (setting [12]) is 7.5 mg/kg; in data set [2] (setting [13]) it was 31.5 mg/kg; in the data set on Apomorphine stereotypy [3] it was 2.5 to 2.7 mg/kg; in data set [4], 1.2 to 1.24 mg/kg; in data set [5], 0.77 mg/kg; in data set [6] (setting [14]), 6.2 mg/kg. The values for the ED50 (in data set [6] (setting [15]); in the data set with Apomorphine stereotypy [7]; in the data set on catalepsy in rats) were 31.5 mg/kg, 0.73 mg/kg and 17.6 mg/kg, respectively.
As to `O=C(NCC1CCCN1CC1=CCCCC1)c1cc(Cl)cc2c1OCC2` (centres unmarked) [Ex 14, N-(1-Cyclohexenylmethyl-2-pyrrolidinylmethyl)-5-chloro-2,3-dihydrobenzofuran-7-carboxamide], the LD50 in data set [1] (setting [8]) was 69.6 to 83.3 mg/kg; in data set [1] (setting [9]), 24.8 mg/kg; in data set [1] (setting [10]) it was 350 to 354 mg/kg; in data set [1] (setting [11]), 412 to 434 mg/kg. Further, the ED50 in data set [2] (setting [12]) was 1.7 mg/kg; in data set [2] (setting [13]), 25 mg/kg; in the data set on Apomorphine stereotypy [3] it was 0.31 to 0.41 mg/kg; in data set [4] it was 0.27 to 0.29 mg/kg; in data set [5], 0.12 mg/kg; in data set [6] (setting [14]), 2.1 mg/kg. The ED50 amounted to 27 mg/kg in data set [6] (setting [15]), 0.29 mg/kg in the data set on Apomorphine stereotypy [7] and 2.7 mg/kg with catalepsy in rats.
